Data set [1] can be described thus: Lipophilicity, log D of compound at pH 7.5 by HPLC analysis. As to conditions: buffer.
Data set [2] deals with Cytochrome P450 3A4 (Homo sapiens, UniProt P08684). Put plainly: Inhibition of CYP3A4 in human liver microsomes using midazolam as substrate incubated for 10 mins in presence of NADPH generating system by LC-MS/MS analysis. Background: Liver microsomes are vesicles of endoplasmic reticulum, rich in cytochrome P450 enzymes.
A short description of data set [3]: Clearance in Wistar rat at 0.3 to 1 mg/kg, iv administered as bolus dose or 15 mins infusion by LC-MS/MS analysis. To be noted: in vivo, dose 0.3-1 mg/kg; for clearance: Wistar; for CL: 0.25 h. The class given is ADME, organism-based.
For data set [4], the species on record is Homo sapiens. Put plainly: Selectivity ratio of IC50 for displacement of [3H]prostaglandin E2 from full-length recombinant human EP4 receptor expressed in Chem-1 cell membranes to IC50 for displacement of [3H]PGF2alpha from full-length recombinant human FP receptor expressed in HEK293 cell membranes. In general terms: In a radioligand displacement assay an active substance lowers the binding of a labelled ligand.

Data set [5] concerns the target Prostaglandin F2-alpha receptor (Homo sapiens, UniProt P43088). Nature of the data set: Antagonist activity at human FPR expressed in human Chem-1 cells assessed as inhibition of PGF2alpha-induced calcium flux preincubated for 10 mins followed by PGF2alpha stimulation and measured for 120 secs by fluo-8 AM dye based fluorescence assay. The class given is functional, cell-based. (A change in cytosolic calcium serves as a functional read-out for many receptors and channels.)

Sequence of Prostaglandin F2-alpha receptor (P43088 whole entry): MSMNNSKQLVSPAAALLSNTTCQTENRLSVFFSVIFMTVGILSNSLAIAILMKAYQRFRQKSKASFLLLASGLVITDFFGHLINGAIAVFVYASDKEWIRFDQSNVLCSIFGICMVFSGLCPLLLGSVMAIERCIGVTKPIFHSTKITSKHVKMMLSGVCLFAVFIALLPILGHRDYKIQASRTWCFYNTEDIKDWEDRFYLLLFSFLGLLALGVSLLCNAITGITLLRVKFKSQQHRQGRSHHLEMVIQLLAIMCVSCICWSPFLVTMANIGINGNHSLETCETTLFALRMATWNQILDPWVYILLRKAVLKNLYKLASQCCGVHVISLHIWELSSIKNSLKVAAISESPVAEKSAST
Sequence of Cytochrome P450 3A4 (P08684 whole entry, the tested form may be a part): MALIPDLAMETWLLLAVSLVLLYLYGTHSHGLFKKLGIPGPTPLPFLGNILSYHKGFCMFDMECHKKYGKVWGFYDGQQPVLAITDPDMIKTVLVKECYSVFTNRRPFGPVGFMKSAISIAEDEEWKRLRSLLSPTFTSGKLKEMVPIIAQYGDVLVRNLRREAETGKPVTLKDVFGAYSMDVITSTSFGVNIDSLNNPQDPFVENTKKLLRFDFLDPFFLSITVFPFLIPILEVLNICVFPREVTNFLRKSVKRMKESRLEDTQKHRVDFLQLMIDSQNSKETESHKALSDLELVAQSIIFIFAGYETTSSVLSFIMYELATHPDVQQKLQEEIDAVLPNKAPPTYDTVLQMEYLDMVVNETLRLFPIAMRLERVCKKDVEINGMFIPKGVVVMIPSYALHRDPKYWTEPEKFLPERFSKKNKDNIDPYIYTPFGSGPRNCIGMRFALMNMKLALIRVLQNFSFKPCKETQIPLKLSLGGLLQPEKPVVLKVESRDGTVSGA

One may read the logD as lipophilicity at a set pH, counting ionised and neutral species. Low values mean lower lipophilicity, high ones higher lipophilicity. By IC50 is commonly meant the concentration that gives 50% inhibition. A word on the clearance: it is a measure of how efficiently the substance is removed, as volume per time. As for `Cc1c(N2CCCC2)nc2ccc(Br)cc2c1C(=O)NC[C@@H](CCC(=O)O)c1ccccc1Cl`, in data set [1], the logD was determined as 2.3. Also, in data set [2], the IC50 is above 20 µM. For the same compound, in data set [3], the clearance was 20 mL/min/kg. `Cc1c(-c2ccccc2)nc2ccc(Cl)cc2c1C(=O)Nc1ccc(C(=O)O)cc1F` had a logD in data set [1] of 1.9. In addition, the Ratio IC50 in data set [4] turned out to be 17. The IC50 in data set [2] is above 20 µM. `Cc1c(-c2ccccc2)nc2ccc(Br)cc2c1C(=O)N(C)CCc1ccccn1`: the IC50 in data set [5] is 15 µM. In the case of `O=C(O)c1ccc(NC(=O)c2c(C3CC3)c(-c3ccccc3)nc3ccc(Br)cc23)c(F)c1`, the logD in data set [1] was determined as 2.1. Further, the Ratio IC50 in data set [4] was 8.8. In data set [1], `Cc1c(N2CC(F)(F)C2)nc2ccc(Br)cc2c1C(=O)NCC(CCC(=O)O)c1ccccc1Cl` (racemic) returned a logD of 2.6. In data set [4], the Ratio IC50 is above 220. In addition, the IC50 in data set [2] was above 20 µM. `COc1cccc(C(CNC(=O)c2c(C)c(-c3ccccc3)nc3ccc(Br)cc23)CC(=O)O)c1` (racemic): in data set [1], the logD came to 2. Also, the IC50 in data set [2] was above 20 µM. With `Cc1c(-c2ccccc2)nc2ccc(Br)cc2c1C(=O)NC(C)Cc1ccccn1` (racemic), the IC50 in data set [5] was 0.5 µM. Take `CCC1CCCN(c2nc3ccc(Br)cc3c(C(=O)NCC(CCC(=O)O)c3ccccc3Cl)c2C)C1` (single isomer, unassigned; 53): in data set [2], the IC50 worked out at 10 µM. Also, in data set [3], the CL is 21.7 mL/min/kg. As for `CCC1CCCN(c2nc3ccc(Br)cc3c(C(=O)NCC(CCC(=O)O)c3ccccc3Cl)c2C)C1` (single isomer, unassigned; 54), the IC50 in data set [2] amounted to 2 µM.

For the compound `CCC1CCCN(c2nc3ccc(Br)cc3c(C(=O)NCC(CCC(=O)O)c3ccccc3Cl)c2C)C1` (single isomer, unassigned; 55), the values for the IC50 in data set [5] and in data set [2] were 0.0076 µM and 5 µM, respectively. As to `Cc1c(-c2ccccc2)nc2ccc(Br)cc2c1C(=O)NCC(CCC(=O)O)c1c(F)ccc(F)c1Cl` (single isomer, unassigned; (+)), the logD in data set [1] was 2.2. Moreover, in data set [2], the IC50 was above 20 µM. Regarding `Cc1c(-c2ccccc2)nc2ccc(Br)cc2c1C(=O)NCC(CCCC(=O)O)c1ccccc1Cl` (single isomer, unassigned; (+)), the logD in data set [1] is 2.3. The IC50 in data set [2] was determined as 20 µM.

Consider `COc1ccccc1C(CNC(=O)c1c(C)c(-c2ccccc2)nc2ccc(Br)cc12)CC(=O)O` (single isomer, unassigned; (+)), for which the logD in data set [1] came out at 2. For the same compound, in data set [2], the IC50 was above 20 µM. Also, in data set [3], the clearance was 46.7 mL/min/kg. As to `COc1ccccc1C(C)CNC(=O)c1c(C)c(-c2ccccc2)nc2ccc(Br)cc12` (single isomer, unassigned; (+)), the IC50 in data set [5] stood at 0.25 µM.

For `Cc1c(N2CCCCCC2)nc2ccc(Br)cc2c1C(=O)NCC(CCC(=O)O)c1ccccc1Cl` (single isomer, unassigned; (+)), in data set [3], the clearance is 21.7 mL/min/kg.

In turn, `Cc1c(-c2ccccc2)nc2ccc(Br)cc2c1C(=O)NCC(CCC(=O)O)c1ccccc1Cl` (single isomer, unassigned; (-)) had a CL in data set [3] of 50 mL/min/kg. Consider `Cc1c(-c2ccccc2)nc2ccc(Br)cc2c1C(=O)NCC(CCC(=O)O)c1c(F)ccc(F)c1Cl` (single isomer, unassigned; (-)), for which the IC50 in data set [2] is 5 µM. Also, in data set [3], the clearance is 43.3 mL/min/kg. `Cc1c(N2CCCCC2)nc2ccc(Br)cc2c1C(=O)NCC(CCC(=O)O)c1c(F)ccc(F)c1Cl` (single isomer, unassigned; (-)) gave a clearance in data set [3] of 38.3 mL/min/kg. As to `Cc1c(N2CCCCC2)nc2ccc(Br)cc2c1C(=O)NCC(CCC(=O)O)c1ccccc1Cl` (single isomer, unassigned; (-)), the CL in data set [3] was found to be 25 mL/min/kg.

Turning to `Cc1c(-c2ccccc2)nc2ccc(Br)cc2c1C(=O)NCC(CC(=O)O)c1ccccc1Cl` (stereo in doubt; 34), in data set [2], the IC50 was 13 µM. The compound also showed a CL in data set [3] of 18.3 mL/min/kg.

In data set [3], `Cc1c(N2CCCCC2)nc2ccc(Br)cc2c1C(=O)NCC(CCC(=O)O)c1ccccc1Cl` (stereo in doubt; 48) gave a clearance of 16.7 mL/min/kg.

Values taken from ChEMBL document CHEMBL4665834 (J Med Chem, 2020).
